Data on two compounds can be found in US20150087722A1, “TREATMENT FOR BREAST TUMOR CELL METASTASIS” (China Medical University, priority 2012, published 2015).

Experiment [1] deals with Liver Tumor Cell (Huh-7 cell strain). Put plainly: MTT cell viability assay. In kind it is cell-based. The conditions noted are these: Homo sapiens. For orientation: Tetrazolium dyes change colour on reduction, which living cells bring about.
Experiment [2] has as its system E-cadherin and Vimentin in MDA-MB-231 cells. Put plainly: E-cadherin Luciferase activity / immunocytochemical analysis (ICC). Type of experiment: cell-based, human. The source says:
Thus, taking the MDA-MB-231 cell as an example, the expression results of E-cadherin and Vimentin in the cell were observed. FIG. 6 is a quantitative analysis diagram showing Luciferase activity of E-cadherin obtained from a primary antibody E-cadherin by an immunocytochemical analysis (ICC). In FIG. 6, a transformed cell strain only including an empty vector (pC3.1) is the negative control, and a cell strain including no compound II is the background control, the translational activity is defined as 100%. ICC includes embedding the tumor cells in paraffin and slicing the embedded cells into slides having a thickness of […] by a slicer, deparaffinizing, rehydrating and renaturating, picking the slide out and putting the slide into the primary antibody E-cadherin; reacting for 1.5 h and washing the slide for three times with PBS, reacting with the secondary antibody for 30 min and washing the slide for three times with PBS, staining the slide with 3′,3′-diaminobenzendine (DAB) at a ratio of 1:30, and the slide was mounted with Entellanz.

Experiment [3] deals with breast tumor cells MDA-MB-453. Put plainly: MTT cell viability assay. In kind it is cell-based, human. The conditions noted are these: for cell viability: FIG. 24. How it is done: The breast tumor cells (MDA-MB-231, MDA-MB-435, MDA-MB-453, MDA-MB-468 and MCF-7) were commercially obtained from the bioresource collection and research center (BCRC), and were cultured in a 10% FBS-DMEM culture medium (i.e., a DMEM culture medium including 10% fetal bovine serum (FBS)). The human breast cell MCF-10A was cultured in a 5% FBS-DMEM culture medium (including F12, insulin, hydrocortisol and epidermal growth factor). An environment of 5% CO2 was kept in the incubator at a constant temperature of 37° C. When a certain number of cells were generated in culture, the culture medium was removed after being centrifuged for 10 min at a rate of 900 rpm. The culture medium was replaced in 24 h before the experiment, and the number of cells was counted by a hemocytometer.
The cell viability was determined by a method of […] (MTT assay). The test method for assaying cell viability refers to steps provided by Parada-Turska et al.
The breast tumor cells MDA-MB-231 were inoculated in a 24-well plate (2.5×10^5 cells/well), and the next day after cells were adhered to the wall of the plate, the cells were washed with PBS. 1% FBS-DMEM culture medium was then added so as to synchronize cells. The next day compound II having different concentrations were added into the wells, and the cells were subsequently cultured in an atmosphere of 5% CO2 at 37° C. for 24 h. The cells were washed with PBS once, and 400 μl MTT agent was added in each well so as to react for 4 h. Then 400 μl 10% SDS was added in each well so as to react for 12 h. 200 μl supernatant was taken from the well and then added into a 96-well microplate, so as to measure the absorbance at 570 nm.
In the MTT assay, the MDA-MB-453 cells were cultured in a culture medium including 5% fetal bovine serum-DMEM F12/insulin/hydrocortisol/epidermal growth factor. Then the cells were cultured at an atmosphere of 5% CO2 in an incubator at a constant temperature of 37° C. When a certain number of cells were generated in culture, the culture medium was removed after being centrifuged at 900 rmp for 10 min. The culture medium was replaced in 24 h before the experiment, and the number of cells was counted by a hemocytometer.

Experiment [4] deals with Normal Rat Macrophage Cell (RAW264.7 cell strain). As to the kind of experiment: MTT cell viability assay. In kind it is cell-based.
Experiment [5] deals with Rat Skin Tumor Cell (B16F10 cell strain). Put plainly: MTT cell viability assay. In kind it is cell-based. The conditions noted are these: Mus musculus, B16-F10.
Experiment [6] has as its system MMP-9 and MMP2 in human normal breast cells MCF-10A stimulated by TNF-α/TGF-β. As to the kind of experiment: Zymography enzyme activity assay. In kind it is cell-based. The source says: Referring to FIG. 8B, the Zymography enzyme activity assay was used to detect effect of the compound II in different doses on enzyme activities of the MMP-9, MMP2 and uPA in the breast tumor cells MDA-MB-231. Moreover, referring to FIG. 9, the Zymography enzyme activity assay was used to detect effect of the compound I on enzyme activities of the MMP-9 and MMP2 in the human normal breast cells MCF-10A stimulated by TNF-α/TGF-β. In the Zymography enzyme activity assay, the cells (1×10^6) were planted in a 6-well plate. The next day after the cells were adhered to the wall, the cells were cultured in a serum free DMEM culture medium at an atmosphere of 5% CO2 in an incubator at 37° C. for 24 h. The compound II in different doses were added into the DMEM culture medium. In other test groups, the compound I was added, TNF-α/TGF-β were added or the compound I and TNF-α/TGF-β were added into the DMEM culture medium, wherein the concentration of compound I and TNF-α/TGF-β were 2 mM and 10 ng/ml, respectively. The cells were cultured in the culture medium for 2 h and then washed with PBS. The cell culture medium was putted into a microcentrifuge tube and centrifuged for 10 min at 1500 rpm. The supernatant was taken to perform a protein gel electrophoresis (SDS-PAGE), so as to separate the proteins. […]

One may read the IC50 as the concentration needed to halve the response being measured. As for `COC1=C(OC)C(=O)C(C)=C(C)C1=O` [compound II], the IC50 in experiment [1] was found to be 15.1 µM; in experiment [3] (Homo sapiens, viability, MDA-MB-453 cell strain, Table 1) it was 36.7 µM; in experiment [4], 25.5 µM; in experiment [5], 20.6 µM. Moreover, the expression of vimentin entry in experiment [2] (MDA-MB-231) was “inhibit expression of vimentin”. In addition, in experiment [2] (MDA-MB-231, with dose increasing, FIG. 6), the “expression amount of E-cadherin in the cytoplasm” value is recorded as “increased”. In addition, the cell viability entry in experiment [3] (40 μM with 2.5 mM antioxidant NAC) is “recovered”; in experiment [3] (40 μM, compound only) it was “half of that in the control group”. Also, the “viability of breast tumor cells” value in experiment [3] (MDA-MB-453, with increasing concentration, FIG. 21) is listed as “inhibited significantly”.
For the compound `COC1=C(OC)C(=O)C(C)=CC1=O` [compound I], the entries for the “enzyme activities of MMP-2 and MMP-9” value in experiment [6] (compound alone) and in experiment [6] (with TNF-α/TGF-β simultaneously) were “decreased” and “recovered the increase caused by TNF-α/TGF-β stimulating”, respectively.
